Data reported in patent US20260285850A1, “SUBSTITUTED OXAZOLIDINONES AND IMIDAZOLINONES AS HERBICIDES” (FMC CORPORATION, priority 2023, published 2026).

How the values were obtained:
Type in all cases: in vivo
[1] = system: barnyardgrass (Echinochloa crus-galli); experiment: Test A preemergence soil spray, visual injury rating 0-100; conditions: 10 days, 0 = no effect, 100 = complete control
In short: (§1)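 Directed preemergence spray onto seeded soil or postemergence spray onto 2-10 cm plants (loam plus sand); compound carried in surfactant-containing non-phytotoxic solvent. Injury rated by eye after 10 d greenhouse growth; 0 = no effect, 100 = complete control.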

[2] = system: blackgrass (Alopecurus myosuroides); experiment: as above; conditions: 10 days, 0 = no effect, 100 = complete control
In short: as §1

corn (Zea mays) [3] = experiment: as above; conditions: 10 days, 0 = no effect, 100 = complete control
In short: as §1

[4] = system: foxtail, giant (giant foxtail, Setaria faberi); experiment: as above; conditions: 10 days, 0 = no effect, 100 = complete control
In short: as §1

kochia (Bassia scoparia) [5] = experiment: as above; conditions: 10 days, 0 = no effect, 100 = complete control
In short: as §1

[6] = system: oat, wild (wild oat, Avena fatua); experiment: as above; conditions: 10 days, 0 = no effect, 100 = complete control
In short: as §1

[7] = system: palmer (palmer amaranth, palmer pigweed, Amaranthus palmeri); experiment: as above; conditions: 10 days, 0 = no effect, 100 = complete control
In short: as §1

[8] = system: ragweed (common ragweed, Ambrosia artemisiifolia); experiment: as above; conditions: 10 days, 0 = no effect, 100 = complete control
In short: as §1

[9] = system: ryegrass, Italian (italian ryegrass, Lolium multiflorum); experiment: as above; conditions: 10 days, 0 = no effect, 100 = complete control
In short: as §1

soybean (Glycine max) [10] = experiment: as above; conditions: 10 days, 0 = no effect, 100 = complete control
In short: as §1

[11] = system: wheat (Triticum aestivum); experiment: as above; conditions: 10 days, 0 = no effect, 100 = complete control
In short: as §1

[12] = system: barnyardgrass (Echinochloa crus-galli); experiment: Test A postemergence application, visual injury rating 0-100; conditions: Postemergence, 10 days, 0 is no effect, 100 is complete control
In short: as §1

[13] = system: blackgrass (Alopecurus myosuroides); experiment: as above; conditions: Postemergence, 10 days, 0 is no effect, 100 is complete control
In short: as §1

corn (Zea mays) [14] = experiment: as above; conditions: Postemergence, 10 days, 0 is no effect, 100 is complete control
In short: as §1

[15] = system: foxtail, giant (giant foxtail, Setaria faberi); experiment: as above; conditions: 10 days, 0 is no effect, 100 is complete control
In short: as §1

[16] = system: galium (catchweed bedstraw, Galium aparine); experiment: as above; conditions: Postemergence, 10 days, 0 is no effect, 100 is complete control
In short: as §1

kochia (Bassia scoparia) [17] = experiment: as above; conditions: Postemergence, 10 days, 0 is no effect, 100 is complete control
In short: as §1

[18] = system: oat, wild (wild oat, Avena fatua); experiment: as above; conditions: Postemergence, 10 days, 0 is no effect, 100 is complete control
In short: as §1

[19] = system: palmer (palmer amaranth, palmer pigweed, Amaranthus palmeri); experiment: as above; conditions: Postemergence, 10 days, 0 is no effect, 100 is complete control
In short: as §1

[20] = system: ragweed (common ragweed, Ambrosia artemisiifolia); experiment: as above; conditions: Postemergence, 10 days, 0 is no effect, 100 is complete control
In short: as §1

[21] = system: ryegrass, Italian (italian ryegrass, Lolium multiflorum); experiment: as above; conditions: Postemergence, 10 days, 0 is no effect, 100 is complete control
In short: as §1

soybean (Glycine max) [22] = experiment: as above; conditions: Postemergence, 10 days, 0 is no effect, 100 is complete control
In short: as §1

[23] = system: wheat (Triticum aestivum); experiment: as above; conditions: Postemergence, 10 days, 0 is no effect, 100 is complete control
In short: as §1

[24] = system: barnyardgrass (Echinochloa crusgalli); experiment: Test B flooded paddy test, visual plant response rating 0-100; conditions: 250 g ai/ha, Flood, applied to paddy water, evaluated after 13 days
In short: (§2)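 Compounds applied to standing paddy water (3 cm above soil, maintained for the test duration) on 2-leaf-stage plants; visual rating vs controls at 13 days, greenhouse.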

[25] = system: ducksalad (Heteranthera limosa); experiment: as above; conditions: 250 g ai/ha, Flood, applied to paddy water, evaluated after 13 days
In short: as §2

rice (Oryza sativa) = experiment: as above; conditions: 250 g ai/ha, Flood, applied to paddy water, evaluated after 13 days
In short: as §2

[26] = system: sedge, umbrella (small-flower umbrella sedge, Cyperus difformis); experiment: as above; conditions: 250 g ai/ha, Flood, applied to paddy water, evaluated after 13 days
In short: as §2

CC1(C(=O)NC2C=CC(C(=O)OCCS(C)(=O)=O)C2)CN(c2cc(F)cc(F)c2)C(=O)O1 (centres unmarked) [Compound 49]
Barnyardgrass plant response rating (0 to 100 scale) ([1]; 125 g ai/ha): 90 | Barnyardgrass plant response rating (0 to 100 scale) ([1]; 500 g ai/ha): 100 | Blackgrass plant response rating (0 to 100 scale) ([2]; 125 g ai/ha): 70 | Blackgrass plant response rating (0 to 100 scale) ([2]; 500 g ai/ha): 80 | Corn plant response rating (0 to 100 scale) (corn (Zea mays) [3]; 125 g ai/ha): 80 | Corn plant response rating (0 to 100 scale) (corn (Zea mays) [3]; 500 g ai/ha): 90 | Foxtail, Giant plant response rating (0 to 100 scale) ([4]; 125 g ai/ha): 90 | Foxtail, Giant plant response rating (0 to 100 scale) ([4]; 500 g ai/ha): 100 | Kochia plant response rating (0 to 100 scale) (kochia (Bassia scoparia) [5]; 125 g ai/ha): 90 | Kochia plant response rating (0 to 100 scale) (kochia (Bassia scoparia) [5]; 500 g ai/ha): 100 | Oat, Wild plant response rating (0 to 100 scale) ([6]; 125 g ai/ha): 80 | Oat, Wild plant response rating (0 to 100 scale) ([6]; 500 g ai/ha): 90 | Amaranth, Palmer plant response rating (0 to 100 scale) ([7]; 125 g ai/ha): 90 | Amaranth, Palmer plant response rating (0 to 100 scale) ([7]; 500 g ai/ha): 100 | Ragweed plant response rating (0 to 100 scale) ([8]; 125 g ai/ha): 40 | Ragweed plant response rating (0 to 100 scale) ([8]; 500 g ai/ha): 90 | Ryegrass, Italian plant response rating (0 to 100 scale) ([9]; 125 g ai/ha): 80 | Ryegrass, Italian plant response rating (0 to 100 scale) ([9]; 500 g ai/ha): 100 | Soybean plant response rating (0 to 100 scale) (soybean (Glycine max) [10]; 125 g ai/ha): 80 | Soybean plant response rating (0 to 100 scale) (soybean (Glycine max) [10]; 500 g ai/ha): 90 | Wheat plant response rating (0 to 100 scale) ([11]; 125 g ai/ha): 90 | Wheat plant response rating (0 to 100 scale) ([11]; 500 g ai/ha): 100 | Barnyardgrass plant response rating (0 to 100 scale) ([12]; 125 g ai/ha): 100 | Barnyardgrass plant response rating (0 to 100 scale) ([12]; 500 g ai/ha): 100 | Blackgrass plant response rating (0 to 100 scale) ([13]; 125 g ai/ha): 90 | Blackgrass plant response rating (0 to 100 scale) ([13]; 500 g ai/ha): 100 | Corn plant response rating (0 to 100 scale) (corn (Zea mays) [14]; 125 g ai/ha): 100 | Corn plant response rating (0 to 100 scale) (corn (Zea mays) [14]; 500 g ai/ha): 100 | Foxtail, Giant plant response rating (0 to 100 scale) ([15]; 125 g ai/ha): 90 | Foxtail, Giant plant response rating (0 to 100 scale) ([15]; 500 g ai/ha): 90 | Galium plant response rating (0 to 100 scale) ([16]; 125 g ai/ha): 70 | Galium plant response rating (0 to 100 scale) ([16]; 500 g ai/ha): 80 | Kochia plant response rating (0 to 100 scale) (kochia (Bassia scoparia) [17]; 125 g ai/ha): 70 | Kochia plant response rating (0 to 100 scale) (kochia (Bassia scoparia) [17]; 500 g ai/ha): 80 | Oat, Wild plant response rating (0 to 100 scale) ([18]; 125 g ai/ha): 90 | Oat, Wild plant response rating (0 to 100 scale) ([18]; 500 g ai/ha): 90 | Amaranth, Palmer / Pigweed, Palmer plant response rating (0 to 100 scale) ([19]; 125 g ai/ha): 90 | Amaranth, Palmer / Pigweed, Palmer plant response rating (0 to 100 scale) ([19]; 500 g ai/ha): 100 | Ragweed plant response rating (0 to 100 scale) ([20]; 125 g ai/ha): 70 | Ragweed plant response rating (0 to 100 scale) ([20]; 500 g ai/ha): 70 | Ryegrass, Italian plant response rating (0 to 100 scale) ([21]; 125 g ai/ha): 80 | Ryegrass, Italian plant response rating (0 to 100 scale) ([21]; 500 g ai/ha): 90 | Soybean plant response rating (0 to 100 scale) (soybean (Glycine max) [22]; 125 g ai/ha): 90 | Soybean plant response rating (0 to 100 scale) (soybean (Glycine max) [22]; 500 g ai/ha): 90 | Wheat plant response rating (0 to 100 scale) ([23]; 125 g ai/ha): 90 | Wheat plant response rating (0 to 100 scale) ([23]; 500 g ai/ha): 90 | Plant response rating, Barnyardgrass (0 to 100 scale, 0 is no effect and 100 is complete control) [24]: 80 | Plant response rating, Ducksalad (0 to 100 scale, 0 is no effect and 100 is complete control) [25]: 90 | Plant response rating, Rice (0 to 100 scale, 0 is no effect and 100 is complete control) (rice (Oryza sativa)): 55 | Plant response rating, Sedge, Umbrella (0 to 100 scale, 0 is no effect and 100 is complete control) [26]: 95
